Data taken from patent US11413278B2, “Compounds and methods for promoting stress resistance” (priority 2015, dated 2022).
“Also recorded” adds a separate entry of the source. Where two headings read alike, the source gives them in different places.

How the values were obtained:
LC3A/B puncta = assay: Autophagy induction analysis (LC3A/B puncta immuno-staining); type: cell-based, human
Procedure, shortened: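 WI-38 cells were treated with compounds for 24 hrs, then immunostained for LC3A/B (overnight, 4° C) with DAPI counterstain and imaged by high-content microscopy. Experiment 1 used total puncta intensity. Experiment 2 used LAMP2-colocalized (lysosomal) puncta. Intensity was normalized to nuclei count.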

NRF2 [1] = assay: in vitro; type: cell-based, human; details: for NRF2-dependency for H2O2-resistance, at 10 uM - with H2O2, 2nd experiment: experiment 2 (2nd); for NRF2-dependency for H2O2-resistance (experiment 3): with & without H2O2, NRF2 knockdown in WI-38 cells; for NRF2-dependency for H2O2-resistance (experiment 3) / NRF2-dependency for H2O2-resistance, 2nd experiment / NRF2-dependency for H2O2-resistance, 1st experiment: YES = resistance reduced by at least 50%, partial = 25% to 50%; for NRF2-dependency for H2O2-resistance, 2nd experiment / NRF2-dependency for H2O2-resistance, 1st experiment: with H2O2, NRF2 knockdown in WI-38 cells; for Assay 17: NRF2-dependency for H2O2-resistance: YES/NO; for NRF2-dependency of H2O2-resistance (NRF2 siRNA knockdown): at least 2 of 3 independent experiments; for NRF2-dependency for H2O2-resistance, at 10 uM - with H2O2, 1st experiment: experiment 1 (1st)
NRF2 [2] = assay: qPCR analysis of NRF2-regulated genes; type: cell-based, human; details: for fold induction at 10 µM: Homo sapiens; for Potential NRF2 Activation (>=2 target genes induced, by >=1.5-fold): Assay 13(p)
Procedure, shortened: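 WI-38 cells treated with compound at 10 μM for 24 hrs, then processed by Cells-to-Ct for RNA isolation, RT and qPCR of NRF2-regulated genes (HMOX1, NQO1, GCLC, GSTM1). Expression normalized to B2M, PPIA and GAPDH; siRNA knockdown of FOXO3 or NRF2 (10 nM) preceded treatment in some runs.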

human PARP1 = target: T1, human PARP1 (Homo sapiens, UniProt P09874); assay: PARP inhibitor assay (HT Fluorescent Homogeneous PARP Inhibition Assay Kit); type: biochemical; details: for L = PARP inhibition: score
T1 construct: purchased Trevigen
Procedure, shortened: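 Human PARP1 with NAD and activated DNA, compounds at 10 μM final, 30 min at room temperature in dark. Resazurin/diaphorase cycling mix then added for 1 hr in dark before stop buffer; fluorescent homogeneous kit read-out.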

[3] = 24 h, Assay 12(o), at 10 uM, qPCR, read-out: Induction of NRF2-regulated genes: GCLC normalized fold-change
[4] = 24 h, Assay 12(o), at 10 uM, qPCR, read-out: Induction of NRF2-regulated genes: NQO1 normalized fold-change
[5] = rounded fold change, WI-38 cells, 10 μM, 24 hrs (RP29 for Gr-4D), read-out: Summary of effects on NRF2-regulated genes: NQO1
[6] = rounded fold change, WI-38 cells, 10 μM, 24 hrs, read-out: Summary of effects on NRF2-regulated genes: GCLC
[7] = 10 μM, 24 hrs, WI-38 cells, qPCR, normalized to B2M, n = 4, read-out: GCLC expression, normalized fold change (NRF2-regulated gene)
[8] = 10 μM, 24 hrs, WI-38 cells, qPCR, normalized to B2M, n = 4, read-out: NQO1 expression, normalized fold change (NRF2-regulated gene)
[9] = WI-38 cells, 10 μM, 24 hrs, n=4, qPCR normalized by B2M, read-out: GCLC Normalized fold change
[10] = WI-38 cells, 10 μM, 24 hrs, n=4, qPCR normalized by B2M, read-out: GSTM1 Normalized fold change
[11] = WI-38 cells, 10 μM, 24 hrs, n=4, qPCR normalized by B2M, read-out: HMOX1 Normalized fold change
[12] = WI-38 cells, 10 μM, 24 hrs, n=4, qPCR normalized by B2M, read-out: NQO1 Normalized fold change
[13] = 24 h, Assay 12(o), at 10 uM, qPCR, read-out: Induction of NRF2-regulated genes: GSTM1 normalized fold-change
[14] = 24 h, Assay 12(o), at 10 uM, qPCR, read-out: Induction of NRF2-regulated genes: HMOX1 normalized fold-change
[15] = rounded fold change, WI-38 cells, 10 μM, 24 hrs (RP11 for Gr-1D, RP29 for Gr-4D), read-out: Summary of effects on NRF2-regulated genes: HMOX1
[16] = rounded fold change, WI-38 cells, 10 μM, 24 hrs (RP29 for Gr-4D), read-out: Summary of effects on NRF2-regulated genes: GSTM1
[17] = 10 μM, 24 hrs, WI-38, read-out: Expression of at least two NRF2 target genes
[18] = 10 μM, 24 hrs, WI-38 cells, qPCR, normalized to B2M, n = 4, read-out: GSTM1 expression, normalized fold change (NRF2-regulated gene)
[19] = 10 μM, 24 hrs, WI-38 cells, qPCR, normalized to B2M, n = 4, read-out: HMOX1 expression, normalized fold change (NRF2-regulated gene)

T1 sequence (P09874 whole entry): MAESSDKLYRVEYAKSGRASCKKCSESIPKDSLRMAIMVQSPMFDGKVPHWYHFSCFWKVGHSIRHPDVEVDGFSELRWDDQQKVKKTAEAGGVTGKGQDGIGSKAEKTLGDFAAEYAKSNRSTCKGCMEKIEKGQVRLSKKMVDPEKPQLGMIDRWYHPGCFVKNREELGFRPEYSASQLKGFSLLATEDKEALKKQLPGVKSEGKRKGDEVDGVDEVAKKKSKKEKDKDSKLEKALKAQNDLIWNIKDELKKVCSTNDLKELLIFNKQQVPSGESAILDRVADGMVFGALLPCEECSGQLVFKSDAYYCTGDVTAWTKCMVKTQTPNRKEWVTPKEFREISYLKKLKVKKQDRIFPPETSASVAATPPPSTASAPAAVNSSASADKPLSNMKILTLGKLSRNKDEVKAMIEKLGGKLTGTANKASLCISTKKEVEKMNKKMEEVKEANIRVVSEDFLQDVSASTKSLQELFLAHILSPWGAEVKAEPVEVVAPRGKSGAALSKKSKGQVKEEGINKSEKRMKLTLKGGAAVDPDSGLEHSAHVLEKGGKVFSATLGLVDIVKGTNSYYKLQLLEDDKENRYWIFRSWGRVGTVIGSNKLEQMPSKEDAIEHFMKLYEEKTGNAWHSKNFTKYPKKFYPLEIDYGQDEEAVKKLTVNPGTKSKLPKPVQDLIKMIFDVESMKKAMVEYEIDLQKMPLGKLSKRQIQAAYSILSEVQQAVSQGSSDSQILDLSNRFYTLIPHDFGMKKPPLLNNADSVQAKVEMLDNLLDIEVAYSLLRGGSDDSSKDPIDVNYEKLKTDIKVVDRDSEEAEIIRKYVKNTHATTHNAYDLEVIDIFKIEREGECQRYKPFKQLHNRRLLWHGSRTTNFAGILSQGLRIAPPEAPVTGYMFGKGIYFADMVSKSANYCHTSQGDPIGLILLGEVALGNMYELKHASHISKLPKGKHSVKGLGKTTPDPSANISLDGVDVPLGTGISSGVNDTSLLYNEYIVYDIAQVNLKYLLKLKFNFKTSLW

SMILES	H = Potential Autophagy Induction (LC3A/B puncta; score)	H = Potential Autophagy Induction (LC3A/B puncta; summary score)	J = NRF2-dependency for H2O2-resistance (NRF2 [1]; score)	J = NRF2-dependency for H2O2-resistance (NRF2 [1]; summary score)	F = Potential NRF2 Activation (NRF2 [2]; 2-point score)	fold induction at 10 µM (NRF2 [2]; [3])	fold induction at 10 µM (NRF2 [2]; [4])	fold induction at 10 µM (NRF2 [2]; [5])	fold induction at 10 µM (NRF2 [2]; [6])	fold induction at 10 µM (NRF2 [2]; [7])	fold induction at 10 µM (NRF2 [2]; [8])	fold induction at 10 µM (NRF2 [2]; [9])	fold induction at 10 µM (NRF2 [2]; [10])	fold induction at 10 µM (NRF2 [2]; [11])	fold induction at 10 µM (NRF2 [2]; [12])	F = Potential NRF2 Activation (NRF2 [2]; summary score)	L = PARP inhibition (human PARP1)	NRF2-dependency for H2O2-resistance, at 10 uM - with H2O2, 2nd experiment (NRF2 [1]; 10 uM)	NRF2-dependency for H2O2-resistance, 2nd experiment (NRF2 [1]; 10 uM)	Assay 17: NRF2-dependency for H2O2-resistance (NRF2 [1]; 10 uM)	other results
[O-][n+]1onc2c3nsnc3c(Br)cc21 [O17]	0	0	0	0	0	1.36	1.47	1.47	1.36	1.36	1.47	1.35	1.12	1.08	1.47	0	0				Induction of at least two NRF2-regulated genes (HMOX1, NQO1, GCLC, GSTM1) (NRF2 [2]; 10 μM, 24 hrs, WI-38): could induce expression of at least two genes
Cc1cc(C)c(C(=O)/C=C/c2ccccc2F)c(O)n1 [O18]	0	0	1	1	2	2.1	2.94	2.94	2.1	2.1	2.94	2.1	1.52	23.8	2.94	2	0	2nd, partial.	partial.	YES	NRF2-dependency for H2O2-resistance, at 10 uM (experiment 3) - with & without H2O2 (NRF2 [1]; 10 uM): YES; NRF2-dependency for H2O2-resistance (experiment 3) (NRF2 [1]; 10 uM): YES; NRF2-dependency of H2O2-resistance (NRF2 siRNA knockdown) (NRF2 [1]): significantly attenuate; Potential NRF2 Activation (>=2 target genes induced, by >=1.5-fold) (NRF2 [2]): YES; fold induction at 10 µM (NRF2 [2]; [13]): 1.52; fold induction at 10 µM (NRF2 [2]; [14]): 23.8; fold induction at 10 µM (NRF2 [2]; [15]): 23.8; fold induction at 10 µM (NRF2 [2]; [16]): 1.52; fold induction at 10 µM (NRF2 [2]; [17]): > 1.5; fold induction at 10 µM (NRF2 [2]; [18]): 1.52; fold induction at 10 µM (NRF2 [2]; [19]): 23.8
COC(=O)CCc1sc2c(c1[N+](=O)[O-])NC(=O)CCC2 [O20]	0	0	1	1	2	1.76	2.49	2.49	1.76	1.76	2.49	1.76	1.36	0.937	2.49	2	0	2nd, YES.	YES.	YES	NRF2-dependency for H2O2-resistance, at 10 uM - with H2O2, 1st experiment (NRF2 [1]; 10 uM): 1st, YES;; NRF2-dependency for H2O2-resistance, at 10 uM (experiment 3) - with & without H2O2 (NRF2 [1]; 10 uM): YES; NRF2-dependency for H2O2-resistance (experiment 3) (NRF2 [1]; 10 uM): YES; NRF2-dependency for H2O2-resistance, 1st experiment (NRF2 [1]; 10 uM): YES;; Reduction of H2O2-resistance capacity upon NRF2 knockdown, on average (NRF2 [1]; 3 of 3 experiments): ~90%; NRF2-dependency of H2O2-resistance (NRF2 siRNA knockdown) (NRF2 [1]): significantly attenuate; Potential NRF2 Activation (>=2 target genes induced, by >=1.5-fold) (NRF2 [2]): YES; fold induction at 10 µM (NRF2 [2]; [17]): > 1.5
COc1ccc(/C=C2\SC(=N)N(c3nccs3)C2=O)cc1 [O21]	0	0	1	1	0	0.51			0.51	0.51		0.512	1.25	3.02	0.836	0	0			YES	NRF2-dependency for H2O2-resistance, at 10 uM - with H2O2, 1st experiment (NRF2 [1]; 10 uM): 1st, partial;; NRF2-dependency for H2O2-resistance, at 10 uM (experiment 3) - with & without H2O2 (NRF2 [1]; 10 uM): YES; NRF2-dependency for H2O2-resistance (experiment 3) (NRF2 [1]; 10 uM): YES; NRF2-dependency for H2O2-resistance, 1st experiment (NRF2 [1]; 10 uM): partial;; fold induction at 10 µM (NRF2 [2]; [13]): 1.25; fold induction at 10 µM (NRF2 [2]; [14]): 3.02; fold induction at 10 µM (NRF2 [2]; [15]): 3.02; fold induction at 10 µM (NRF2 [2]; [16]): 1.25; fold induction at 10 µM (NRF2 [2]; [18]): 1.25; fold induction at 10 µM (NRF2 [2]; [19]): 3.02
CC(C)(C)c1ccc(OCC(=O)Nc2ccc3c4c(cccc24)C(=O)NC3=O)cc1 [O22]	0	0	1	1	0	0.66			0.66	0.66		0.659	0.877	0.765	0.929	0	1	2nd, partial.	partial.	YES	NRF2-dependency for H2O2-resistance, at 10 uM - with H2O2, 1st experiment (NRF2 [1]; 10 uM): 1st, partial;; NRF2-dependency for H2O2-resistance, 1st experiment (NRF2 [1]; 10 uM): partial;; NRF2-dependency of H2O2-resistance (NRF2 siRNA knockdown) (NRF2 [1]): significantly attenuate; Inhibition of PARP1 (human PARP1; 10 μM, in vitro): confirmed as PARP inhibitors; also recorded: inhibitors of PARP1
COc1cccc(/C=C2\CN(C)C/C(=C\c3cccc(OC)c3OC)C2=O)c1OC [O23]	1	1	1	1	0	0.67	0.48	0.48	0.67	0.67	0.48	0.668	0.595	12.9	0.477	0	0	2nd, YES.	YES.	YES	Assay 15: Potential autophagy induction by LC3A/B puncta assays (LC3A/B puncta; 10 uM & 20 uM, YES/NO): YES; Survival of NRF2 siRNA-transfected cells in the absence of H2O2 (NRF2 [1]): could reduce the survival; NRF2-dependency for H2O2-resistance, at 10 uM - with H2O2, 1st experiment (NRF2 [1]; 10 uM): 1st, YES;; NRF2-dependency for H2O2-resistance, 1st experiment (NRF2 [1]; 10 uM): YES;; NRF2-dependency of H2O2-resistance (NRF2 siRNA knockdown) (NRF2 [1]): significantly attenuate; viability of non-stressed cells, reduced by (NRF2 [1]; human, 24 h, 10 uM): by 40%); fold induction at 10 µM (NRF2 [2]; [13]): 0.6; fold induction at 10 µM (NRF2 [2]; [14]): 12.9; fold induction at 10 µM (NRF2 [2]; [15]): 12.9; fold induction at 10 µM (NRF2 [2]; [16]): 0.6; fold induction at 10 µM (NRF2 [2]; [18]): 0.6; fold induction at 10 µM (NRF2 [2]; [19]): 12.9
Oc1ccccc1-c1noc(-c2ccccc2O)n1 [O27]	0	0	0	0	0											0	0				
